Measured values published in patent US9932350B2, “Inhibitors of IRAK4 activity” (MERCK SHARP & DOHME CORP., priority 2014, dated 2018).

Each compound was assayed against GST tagged IRAK4 (Homo sapiens (Human), UniProt Q9NWZ3) (assay: IRAK4 Kinase Assay (IMAP fluorescence polarization)). Conditions: 0.5 nM GST tagged IRAK4, 100 μM ATP, 30 minutes at 25° C.
Type: biochemical
Protocol: The kinase activity of IRAK4 is determined by its ability to catalyze the phosphorylation of a fluorescent polypeptide substrate. The extent of phosphorylation is measured using the IMAP technology (Molecular Devices) where the phosphorylated fluorescent substrate binds to the large M(III)-based nanoparticles which reduces the rotational speed of the substrate and thus increases its fluorescent polarization (FP).
20 μL reaction mixture contains 10 mM TriHCl, pH 7.2, 0.5 nM GST tagged IRAK4 (SignalChem), 100 nM fluorescent peptide substrate (RP7030, Molecular Devices), 100 μM ATP, 1 mM DDT, 1 mM MgCl2, and 0.01% Tween 20. The reaction is initiated by the addition of ATP. After incubation for 30 minutes at 25° C., 60 μL of Progressive IMAP Reagent (Molecular Devices) is added to stop the reaction. Change in RP7030's FP is determined by a FP reader (Analyst HT, LJL BioSystems).

Chain of GST tagged IRAK4 (Q9NWZ3 whole entry): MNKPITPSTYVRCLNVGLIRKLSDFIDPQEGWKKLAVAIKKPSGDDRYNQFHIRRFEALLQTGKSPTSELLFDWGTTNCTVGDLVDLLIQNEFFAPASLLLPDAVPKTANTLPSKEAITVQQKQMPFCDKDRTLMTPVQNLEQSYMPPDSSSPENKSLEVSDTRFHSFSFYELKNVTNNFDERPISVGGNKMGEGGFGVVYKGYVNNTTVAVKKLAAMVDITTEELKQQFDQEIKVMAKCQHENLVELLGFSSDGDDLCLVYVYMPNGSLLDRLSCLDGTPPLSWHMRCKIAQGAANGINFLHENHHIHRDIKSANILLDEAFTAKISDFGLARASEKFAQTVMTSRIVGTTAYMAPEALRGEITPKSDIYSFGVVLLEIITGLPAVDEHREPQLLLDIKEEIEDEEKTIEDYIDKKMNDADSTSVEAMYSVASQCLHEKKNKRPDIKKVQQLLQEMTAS

Compound	IC50
N#Cc1ccc2ncnc(N[C@H]3CC[C@H](N4CCN(C(=O)C5CC5(F)F)CC4)CC3)c2c1 (stereo partly drawn) [Example 6-14, 4-[(trans-4-{4-[(2,2-difluorocyclopropyl)carbonyl]piperazin-1-yl}cyclohexyl)amino] quinazoline-6-carbonitrile]	0.013 µM
CC1(O)CCN([C@H]2CC[C@H](Nc3ncnc4ccc(C#N)cc34)CC2)C1 (stereo partly drawn) [Example 3-36, 4-{[trans-4-(3-hydroxy-3-methylpyrrolidin-1-yl)cyclohexyl]amino} quinazoline-6-carbonitrile]	0.025 µM
COc1cc2ncnc(N[C@H]3CC[C@H](N(C)C)CC3)c2cc1OC [Example 2-3, trans-N′-(6,7-dimethoxyquinazolin-4-yl)-N,N-dimethylcyclohexane-1,4-diamine]	7.42 µM
N#Cc1ccc2ncnc(N[C@H]3CC[C@H](N4CCN(C(=O)C(O)C5CC5)CC4)CC3)c2c1 (stereo partly drawn) [Example 6-20, 4-[(trans-4-{4-[cyclopropyl(hydroxy)acetyl]piperazin-1-yl}cyclohexyl)amino] quinazoline-6-carbonitrile]	0.008 µM
Brc1ccc2ncnc(O[C@H]3CC[C@H](N4CCOCC4)CC3)c2c1 [Example 2-1, 6-Bromo-4-{[trans-4-(morpholin-4-yl)cyclohexyl]oxy}quinazoline]	0.04 µM
CC1CN([C@H]2CC[C@H](Nc3ncnc4ccc(C#N)cc34)CC2)CC(C)O1 (single isomer, unassigned) [Example 3-14, 4-({trans-4-[(2S,6S or 2R,6R)-2,6-dimethylmorpholin-4-yl]cyclohexyl}amino) quinazoline-6-carbonitrile]	0.033 µM
COCC(=O)N1CCN([C@H]2CC[C@H](Nc3ncnc4ccc(C#N)cc34)CC2)CC1 [Example 6-10, 4-({trans-4-[4-(methoxyacetyl)piperazin-1-yl]cyclohexyl}amino) quinazoline-6-carbonitrile]	0.016 µM
CC1OCCN([C@H]2CC[C@@H](Nc3ncnc4ccc(C#N)cc34)CC2)C1C (stereo partly drawn) [Example 3-8, 4-{[cis-4-(2,3-dimethylmorpholin-4-yl)cyclohexyl]amino} quinazoline-6-carbonitrile]	2.55 µM
N#Cc1ccc2ncnc(N[C@H]3CC[C@H](N4CCOC(CO)C4)CC3)c2c1 (single isomer, unassigned) [Example 3-12, 4-({trans-4-[(2R or 2S)-2-(hydroxymethyl)morpholin-4-yl]cyclohexyl}amino) quinazoline-6-carbonitrile]	0.006 µM
N#Cc1ccc2ncnc(N[C@H]3CC[C@H](NC4CC4)CC3)c2c1 [Example 3-23, 4-{[trans-4-(cyclopropylamino)cyclo-hexyl]amino}quinazoline-6-carbonitrile]	0.026 µM
CC(C)Oc1ccc2ncnc(N[C@H]3CC[C@H](N4CCOCC4)CC3)c2c1 [Example 2-10, N-[trans-4-(morpholin-4-yl)cyclohexyl]-6-(propan-2-yloxy)quinazolin-4-amine]	0.082 µM
CN(C)[C@H]1CC[C@H](Nc2ncnc3ccc(C#N)cc23)CC1 [Example 2-5, 4-{[trans-4-(dimethylamino)cyclohexyl]amino}quinazoline-6-carbonitrile]	0.007 µM
CS(=O)(=O)C1CCN([C@H]2CC[C@H](Nc3ncnc4ccc(C#N)cc34)CC2)CC1 [Example 3-10, 4-({trans-4-[4-(methylsulfonyl)piperidin-1-yl]cyclohexyl}amino) quinazoline-6-carbonitrile]	0.011 µM
C[C@]1(Nc2ncnc3ccc(C#N)cc23)CC[C@H](N2CCC(O)C2)CC1 (stereo partly drawn) [Example 7-3, 4-{[trans-4-(3-hydroxypyrrolidin-1-yl)-1-methylcyclohexyl]amino} quinazoline-6-carbonitrile]	0.043 µM
CC1OCCN([C@H]2CC[C@H](Nc3ncnc4ccc(C#N)cc34)CC2)C1C (stereo partly drawn) [Example 3-7, 4-{[trans-4-(2,3-dimethylmorpholin-4-yl)cyclohexyl]amino} quinazoline-6-carbonitrile]	0.096 µM
CC(C)[C@@H]1COCCN1[C@H]1CC[C@H](Nc2ncnc3ccc(C#N)cc23)CC1 [Example 3-52, 4-({trans-4-[(3R)-3-(propan-2-yl)morpholin-4-yl]cyclohexyl}amino) quinazoline-6-carbonitrile]	0.026 µM
CN(C)[C@H]1CC[C@H](Nc2ncnc3ccc(OCC(N)=O)cc23)CC1 [Example 2-17, 2-[(4-{[trans-4-(dimethylamino)cyclohexyl]amino}quinazolin-6-yl)oxy]acetamide]	0.052 µM
CC(C)(CF)C(=O)N1CCN([C@H]2CC[C@H](Nc3ncnc4ccc(C#N)cc34)CC2)CC1 [Example 6-4, 4-({trans-4-[4-(3-fluoro-2,2-dimethylpropanoyl)piperazin-1-yl]cyclohexyl}amino) quinazoline-6-carbonitrile]	0.009 µM

Compound	IC50
N#Cc1ccc2ncnc(N[C@H]3CC[C@H](N4CCN(C(=O)[C@H]5CCCO5)CC4)CC3)c2c1 [Example 6-23, 4-[(trans-4-{4-[(2R)-tetrahydrofuran-2-ylcarbonyl]piperazin-1-yl}cyclohexyl)amino] quinazoline-6-carbonitrile]	0.017 µM
CN(C1CC1)[C@H]1CC[C@H](Nc2ncnc3ccc(C#N)cc23)CC1 [Example 3-32, 4-({trans-4-[cyclopropyl(methyl)amino]cyclohexyl}amino) quinazoline-6-carbonitrile]	0.015 µM
CC1(C(=O)N2CCN([C@H]3CC[C@H](Nc4ncnc5ccc(C#N)cc45)CC3)CC2)CC1 [Example 6-8, 4-[(trans-4-{4-[(1-methylcyclopropyl)carbonyl]piperazin-1-yl}cyclohexyl)amino] quinazoline-6-carbonitrile]	0.015 µM
N#Cc1ccc2ncnc(N[C@H]3CC[C@H](N4C[C@H]5CC[C@@H](C4)O5)CC3)c2c1 [Example 3-50, 4-({trans-4-[(1R,5S)-8-oxa-3-azabicylco[3.2.1]oct-3-yl]cyclohexyl}amino) quinazoline-6-carbonitrile]	0.579 µM
CC1(C)CN([C@H]2CC[C@H](Nc3ncnc4ccc(C#N)cc34)CC2)CCO1 [Example 3-51, 4-{[trans-4-(2,2-dimethylmorpholin-4-yl)cyclohexyl]amino} quinazoline-6-carbonitrile]	0.089 µM
COCCN[C@H]1CC[C@H](Nc2ncnc3ccc(C#N)cc23)CC1 [Example 3-22, 4-({trans-4-[(2-methoxyethyl)amino]cyclohexyl}amino)quinazoline-6-carbonitrile]	0.016 µM
CC1CC(N2CCC(F)CC2)CCC1Nc1ncnc2ccc(C#N)cc12 (single isomer, unassigned) [Example 8-2, 4-{[(1S,2S,4S or 1R,2R,4R)-4-(4-fluoropiperidin-1-yl)-2-methylcyclohexyl]amino} quinazoline-6-carbonitrile]	0.01 µM
N#Cc1ccc2ncnc(N[C@H]3CC[C@H](N4CCCC(F)(F)CC4)CC3)c2c1 [Example 3-53, 4-{[trans-4-(4,4-difluoroazepan-1-yl)cyclohexyl]amino} quinazoline-6-carbonitrile]	0.012 µM
C[C@@H]1CN([C@H]2CC[C@H](Nc3ncnc4ccc(C#N)cc34)CC2)C[C@H](C)O1 [Example 3-9, 4-({trans-4-[(2R,6S)-2,6-dimethylmorpholin-4-yl]cyclohexyl}amino) quinazoline-6-carbonitrile]	0.005 µM
N#Cc1ccc2ncnc(N[C@H]3CC[C@H](N4CCCC(CN5CCOCC5)C4)CC3)c2c1 (single isomer, unassigned) [Example 3-41, 4-({trans-4-[(3R or 3S)-3-(morpholin-4-ylmethyl)piperidin-1-yl]cyclohexyl}amino) quinazoline-6-carbonitrile]	0.07 µM
N#Cc1ccc2ncnc(N[C@H]3CC[C@H](N4CCCC(F)(F)C4)CC3)c2c1 [Example 3-33, 4-{[trans-4-(3,3-difluoropiperidin-1-yl)cyclohexyl]amino} quinazoline-6-carbonitrile]	0.132 µM
N#Cc1ccc2ncnc(N[C@H]3CC[C@H](N4CCC(CN5CCOCC5)CC4)CC3)c2c1 [Example 3-43, 4-({trans-4-[4-(mopholin-4-ylmethyl)piperidin-1-yl]cyclohexyl}amino) quinazoline-6-carbonitrile]	0.009 µM
CC1CN([C@H]2CC[C@H](Nc3ncnc4ccc(C#N)cc34)CC2)CCO1 (single isomer, unassigned) [Example 3-16, 4-({trans-4-[(2S or 2R)-2-methylmorpholin-4-yl]cyclohexyl}amino) quinazoline-6-carbonitrile]	0.007 µM
CN(C)[C@H]1CC[C@H](Nc2ncnc3ccc(OCC#N)cc23)CC1 [Example 2-15]	0.012 µM
N#Cc1ccc2ncnc(NC3CCC(N4CCCC(C(F)(F)F)C4)CC3)c2c1 (single isomer, unassigned) [Example 3-5, 4-({cis or trans-4-[(3R or S)-3-(trifluoromethyl)piperidin-1-yl]cyclohexyl}amino) quinazoline-6-carbonitrile]	0.908 µM
CC(C)(C)C(=O)N1CCN([C@H]2CC[C@H](Nc3ncnc4ccc(C#N)cc34)CC2)CC1 [Example 6-3, 4-({trans-4-[4-(2,2-dimethylpropanoyl)piperazin-1-yl]cyclohexyl}amino) quinazoline-6-carbonitrile]	0.008 µM
N#Cc1ccc2ncnc(N[C@H]3CC[C@H](N4CCCC4)CC3)c2c1 [Example 3-44, 4-{[trans-4-(pyrrolidin-1-yl)cyclohexyl]amino} quinazoline-6-carbonitrile]	0.015 µM
N#Cc1ccc2ncnc(N[C@H]3CC[C@@H](N4CCC4)CC3)c2c1 [Example 3-6, 4-{[cis-4-(azetidin-1-yl)cyclohexyl]amino} quinazoline-6-carbonitrile]	0.768 µM
